Data on six substances can be found in publication PMC12371492, “Poly-Arginine Tails and Helical Segments of Natural Antimicrobial Peptides Display Concerted Action at Membranes for Enhanced Antimicrobial Effects” (ACS Bio & Med Chem Au, 2025).

Read-outs that look alike come from different tables or passages of the source. Ends that are not written are not given here.

The subject of experiment [1] is Vibrio cholerae O1 El Tor strain C6706. Format: cell-based. The conditions noted are these: CM9-Hepes pH 7.4, 5 × 10^5 cfu/mL, 20 h at 37 °C shaking, OD 600 nm, triplicate.
Experiment [2] concerns bacteria. The conditions noted are these: bacteria and source not stated (discussion).
Experiment [3] is described as follows: Calcein dye leakage assay on LUVs. As for the experimental part: Calcein leakage assays were done on large unilamellar vesicles (LUVs) following a procedure previously described. , Briefly, a 3:1 POPC/POPG lipid film (containing 4 μmol total of lipids) was prepared in a round-bottom flask using the lipids dissolved in chloroform. The solvent was removed under N2 gas before drying overnight under vacuum. The next day, the lipid cake was hydrated with 300 μL of 80 mmol/L calcein dye (pH 7.4) to generate a suspension that was subjected to 3 freeze–thaw cycles before extrusion through a 0.1 μm polycarbonate filter placed in a mini extruder (Avanti Polar Lipids). Untrapped calcein was separated from the LUVs by chromatography using a Sephadex G-50 column run with HEPES buffer (50 mmol/L, 100 mmol/L NaCl, 0.3 mmol/L EDTA, pH 7.4). A total phosphorus assay was performed to determine the exact lipid concentration of the LUVs. After diluting the vesicles to a final concentration of ∼35 μmol/L, the LUVs were plated in 180 μL wells and exposed to 20 μL of TP4 solutions serially diluted from stock, as needed to generate peptide-to-lipid ratios (P/L) ranging from P/L = 1:2 and 1:1024. Triplicates of each well were run, and at least three independent assays were performed as well. The 96-well plate was incubated at 20 °C with shaking for 40 min. After equilibration at room temperature, the fluorescence was measured using a BioTek SynergyH1 plate reader (BioTek, Winooski, VT) using excitation and emission wavelengths of 490 and 520 nm, respectively. The fractional leakage produced by TP4 was calculated using the equation: %leakage=Ix−I0%/I100%−I0% where I x is the fluorescence intensity in a peptide-containing well, I 100% is the intensity of the positive control (100% leakage obtained with 20 μL of 1% Triton-X detergent), and I 0% is the intensity of the negative control (0% leakage obtained with 20 μL nanopure water). P1 was run in parallel for comparative purposes. The dose–response curves were fitted in GraphPad Prism using a modified version of the Hill equation to extract the EC50 as the P/L where half of the dye has been released. […]

Experiment [4] deals with Escherichia coli (E. coli) MG1655. Format: cell-based. The method, then: (§1) Minimum inhibitory concentrations were determined by broth microdilution technique. Two bacterial species were used: Gram-positive bacteria Staphylococcus epidermidis (S. epidermidis), derived from ATCC 14990 and Gram-negative bacteria Escherichia coli (E. coli) MG1655, respectively. S. epidermidis was grown in TSB, and E. coli was grown in MHB. Both were stored at 4 °C on their respective growth medium agar plates. Before the assay, bacteria were grown overnight in 5 mL of growth medium at 37 °C. The grown bacteria were further subcultured in 3 mL of growth medium by diluting to 1% until the O.D. reached 0.4–0.6 within 2.5–3 h. After the bacteria reached the mid log phase, further dilution was made to attain an O.D. of 0.001 to get a final of ∼10^5 CFU/mL in each well of a 96-well plate. An Opentron OT_2 robot pipetting system was used to automatically prepare serial dilutions of peptides and add the bacteria to attain a total volume of 100 μL in each well. The wells containing only medium served as a negative blank. The plate was then incubated for 24 h at 37 °C, and the O.D. of the plate was recorded at 600 nm using a BioTek (Agilent, Santa Clara, CA) microplate reader (Figure S1). The lowest concentration at which no bacterial growth was observed was considered the MIC of the peptide.

The subject of experiment [5] is Staphylococcus epidermidis (S. epidermidis), derived from ATCC 14990. The experiment is classed as cell-based. The method, then:
as §1

The mark [6] stands for this setting: broth microdilution, MHB, ~10^5 CFU/mL, 24 h at 37 °C, O.D. 600 nm, lowest concentration with no growth.
The mark [7] stands for this setting: broth microdilution, TSB, ~10^5 CFU/mL, 24 h at 37 °C, O.D. 600 nm, lowest concentration with no growth.

For the substance “FFHHIFRGIVHVGKTIHRLVTG-NH2 [P1, reference compound]”, in experiment [1], the “MIC Vibrio cholerae” value was determined as 16 µM. In addition, in experiment [2], the MIC values was less than 1 µM.
For “FFHHIFRGIVHVGKTIHRLVTGRRRRR-NH2 [P1-R5, P1 with the R5 motif added at the C-terminal end]”, the “EC50, L/P yielding 50% calcein leakage” value in experiment [3] (3:1 POPC/POPG LUVs ~35 μmol/L lipid, HEPES pH 7.4, 40 min at 20 °C, fluorescence 490/520 nm, ± standard error, three assays in triplicate) is on record as 97.2 ± 3.4 L/P. Besides, the calcein leakage in experiment [3] (POPC/POPG liposomes, P/L of 1:10) was 100%. The “factor more active than P1 (EC50 ratio)” value in experiment [3] (calcein leakage, 3:1 POPC/POPG LUVs) is recorded as 3.4 fold.
FIHHIIGGLFSAGKAIHRLI-NH2 [TP4-noR5]: in experiment [4] (setting [6]), the “MIC E. coli” value was 16 µM. Also, in experiment [5] (setting [7]), the “MIC S. epidermidis” value is 2 µM.
Regarding FIHHIIGGLFSAGKAIHRLIRRRRR-NH2 [TP4], the “MIC E. coli” value in experiment [4] (MG1655, 24 h) was 4 µM. In addition, the “MIC S. epidermidis” value in experiment [5] (ATCC 14990, 24 h) stood at 1 µM. Besides, the “MIC Vibrio cholerae” value in experiment [1] stood at 1 µM. For the same substance, the MIC values in experiment [2] is less than 1 µM.
Regarding QLAQALAAALAALAQGW-NH2 [NP], the “MIC E. coli” value in experiment [4] (setting [6]) is more than 64 µM. Besides, the “MIC S. epidermidis” value in experiment [5] (setting [7]) was more than 64 µM.
In the case of QLAQALAAALAALAQGWRRRRR-NH2 [NP-R5], the “MIC E. coli” value in experiment [4] (setting [6]) turned out to be 7.5 µM. For the same substance, the “MIC S. epidermidis” value in experiment [5] (setting [7]) came out at 2 µM.
